In patent US11198713B2, “Agents modulating beta-catenin functions and methods thereof” (FOG PHARMACEUTICALS, INC., priority 2017, dated 2021):
In brackets after ≈: the same amount, converted by molar mass. Like-named read-outs stand apart in the source and are kept apart here. Numbered stars: 1 amine (or outer) side, 2 acyl side, 3 side chain; on linkers, the order of the positions; unused ones are H or OH. Bridge positions count the residues as written; N and C are the ends. Square brackets hold non-standard residues; d marks the D form. Primed or numbered codes have the meaning given here. Peptide text beside a SMILES is read from it. * marks the point of attachment. MC″ = Monomer C = PyrR, pyrrolidine stapling residue bearing Alloc (allyl carbamate on pyrrolidine N); MB = Monomer B = PyrS, Alloc-pyrrolidine stapling residue (allyl carbamate on pyrrolidine N); R6 = (R)-2-(5-hexenyl)alanine, C=CCCCC[C@@](C)(N[*:1])C(=O)[*:2]; S6 = (S)-2-(5-hexenyl)alanine, C=CCCCC[C@](C)(N[*:1])C(=O)[*:2]; MB(14) = Monomer B = PyrS, Alloc-pyrrolidine stapling residue; MF = Monomer F (SdN), acyclic alkyl-N(Alloc) stapling residue; 3Aminoazetidine3carboxyl = O=C(C1(N[*:1])CN([*:3])C1)[*:2]; αMeDab(Me) = CN(CC[C@](C)(N[*:1])C(=O)[*:2])[*:3]; Biotin = O=C1N[C@H]2[C@H](CS[C@H]2CCCCC(=O)*)N1; X3 = O=C([C@@]1(N[*:1])CCN([*:3])C1)[*:2]; X1 = O=C([C@]1(N[*:1])CCN([*:3])C1)[*:2]; PEG3′ = PEG3 linker, CAS# 557756-85-1; X2 = O=C(OCC=CCOC(=O)[*:2])[*:1]; R8 = C=CCCCCCC[C@@](C)(N)C(=O)O; S8 = C=CCCCCCC[C@](C)(N)C(=O)O; S5 = C=CCCC[C@](C)(N)C(=O)O; Aib = CC(C)(N)C(=O)O

T1: full-length beta-catenin (Axin site) (Homo sapiens, UniProt P35222)
T1 construct: 15 nM full-length beta-catenin, 20 nM FITC labeled peptide in buffer
T1 sequence (P35222 1-781): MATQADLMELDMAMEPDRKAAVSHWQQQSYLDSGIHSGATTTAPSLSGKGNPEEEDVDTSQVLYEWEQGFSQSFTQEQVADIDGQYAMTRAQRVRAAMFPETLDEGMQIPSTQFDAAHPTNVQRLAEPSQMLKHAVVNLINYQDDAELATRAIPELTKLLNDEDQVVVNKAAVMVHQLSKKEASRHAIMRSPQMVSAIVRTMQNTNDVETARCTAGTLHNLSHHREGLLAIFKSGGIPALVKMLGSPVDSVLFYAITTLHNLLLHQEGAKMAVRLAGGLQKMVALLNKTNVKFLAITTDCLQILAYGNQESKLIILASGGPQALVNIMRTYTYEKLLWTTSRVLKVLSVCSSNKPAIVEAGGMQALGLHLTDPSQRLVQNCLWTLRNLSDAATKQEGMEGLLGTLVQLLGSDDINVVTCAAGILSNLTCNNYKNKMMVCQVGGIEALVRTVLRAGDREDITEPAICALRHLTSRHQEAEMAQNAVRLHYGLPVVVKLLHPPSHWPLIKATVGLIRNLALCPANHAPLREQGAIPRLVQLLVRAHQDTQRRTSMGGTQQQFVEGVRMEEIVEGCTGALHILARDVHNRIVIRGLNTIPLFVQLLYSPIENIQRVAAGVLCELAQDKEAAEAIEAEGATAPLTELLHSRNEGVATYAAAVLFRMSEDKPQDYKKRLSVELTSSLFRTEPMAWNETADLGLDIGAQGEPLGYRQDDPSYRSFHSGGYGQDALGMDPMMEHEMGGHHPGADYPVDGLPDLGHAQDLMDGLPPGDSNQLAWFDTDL

T2: full-length beta-catenin (UniProt P35222 2-781, limits assumed)
T2 construct: mature; also called full-length ß-Catenin; β-catenin
T2 sequence (looked up): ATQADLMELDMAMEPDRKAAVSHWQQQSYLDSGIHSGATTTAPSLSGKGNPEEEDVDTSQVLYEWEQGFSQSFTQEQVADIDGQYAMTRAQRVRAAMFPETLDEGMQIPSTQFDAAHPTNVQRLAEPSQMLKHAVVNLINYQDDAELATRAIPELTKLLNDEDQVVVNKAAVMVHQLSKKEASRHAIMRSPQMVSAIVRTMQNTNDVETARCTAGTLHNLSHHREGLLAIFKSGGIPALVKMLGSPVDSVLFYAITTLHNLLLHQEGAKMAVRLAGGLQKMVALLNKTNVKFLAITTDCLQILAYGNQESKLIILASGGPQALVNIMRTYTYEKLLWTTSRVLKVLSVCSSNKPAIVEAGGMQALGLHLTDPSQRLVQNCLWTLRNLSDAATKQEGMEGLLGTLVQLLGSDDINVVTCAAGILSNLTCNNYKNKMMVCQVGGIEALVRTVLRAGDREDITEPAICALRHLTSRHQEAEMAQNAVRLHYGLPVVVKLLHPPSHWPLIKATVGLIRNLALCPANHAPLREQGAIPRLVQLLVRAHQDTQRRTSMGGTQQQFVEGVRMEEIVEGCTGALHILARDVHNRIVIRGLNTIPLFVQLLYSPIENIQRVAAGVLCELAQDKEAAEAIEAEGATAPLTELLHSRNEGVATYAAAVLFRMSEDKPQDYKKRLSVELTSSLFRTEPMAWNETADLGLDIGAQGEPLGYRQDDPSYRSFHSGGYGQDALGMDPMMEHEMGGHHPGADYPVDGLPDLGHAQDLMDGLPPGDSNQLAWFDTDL


Tests used:
[1] = target: T1, full-length beta-catenin (Axin site); experiment: Competition fluorescence polarization assay (Axin site probe); format: binding; conditions: competition fluorescence polarization, Table 2; read-out: in vitro FP EC50
Outline: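 Competition FP: 15 nM full-length β-catenin pre-incubated 5 min with 20 nM FITC-labelled stapled Axin-site peptide, then titrated peptide added (3-fold series from 5 μM) for 15 min in the dark. Buffer 50 mM Tris pH 8.0, 250 mM NaCl, 2% glycerol, 0.5 mM EDTA; duplicate reads.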

[2] = Solubility in DPBS (A280 of supernatant); format: physicochemical; conditions: DPBS
Procedure: Suitable assays for assessing solubility are widely known in the art and can be utilized in accordance with the present disclosure. In some embodiments, in an exemplary protocol, dried peptide was reconstituted in DPBS (DPBS, 1×, cell culture grade, Sigma D8537) in triplicate, vortexed, sonicated and then centrifuged. Absorbance of the supernatant was measured at A280 (Nanodrop 2000) and the concentration was determined using the extinction coefficient for tryptophan. Exemplary solubility data are presented in, e.g., Table 2.

[3] = target: T2, full-length beta-catenin; experiment: competition FP, grade of FP EC50 (+++: <=100 nM)
Procedure: In some embodiments, a competition fluorescence polarization assay is used to assess binding of provided compounds to beta-catenin. In an exemplary procedure, solutions of provided compounds, e.g., provided stapled peptides, were prepared in a buffer (e.g., 50 mM Tris pH 8.0, 250 mM NaCl, 2% glycerol, 0.5 mM EDTA, 0.02% w/v sodium azide) using a 3-fold serial dilution from 5 µM. Probe solution (15 nM full-length ß-Catenin, 20 nM FITC labeled peptide in buffer) was prepared and incubated for a period of time, e.g., 5 minutes, and the a volume, e.g., 40 µL per well plated in suitable plate, e.g., a black polystyrene 384-well plate (Corning). Equal volume of the serial diluted peptide was added to the plate and incubated protected from light for 15 minutes prior to read. Reads were performed on a Spectramax M5 (Molecular Devices) in duplicate. Suitable probe was FITC-PEG1-PQ-S5-ILD-S5-HVRRVWR (SEQ ID NO: 1) (hydrocarbon staple formed by two S5 via olefin metathesis) and/or FITC-bA-PQ-S5-ILD-S5-HVRRVWR (SEQ ID NO: 3) (hydrocarbon staple formed by two S5 via olefin metathesis). […] Another peptide, FPO217c (Ac-AR_8ILDAHIM$B5$RVW (SEQ ID NO: 280), with N-terminal proline removed and valine replaced with isoleucine compared to FP0025c) was prepared.

[4] = Table 3 Part A, read-out: Solubility in DPBS

Row | EC50 [1] [nM] | solubility ([2]; Table 2, read-out: Solubility) [µM] | solubility [2, 4] [µM] | FP EC50 [3] [nM] | Molecule
1 | < 100 | 56 (≈ 88.7 µg/mL) | 56 (≈ 88.7 µg/mL) | – | CC[C@H](C)[C@@H]1NC(=O)[C@H](Cc2c[nH]cn2)NC(=O)[C@H](C)NC(=O)[C@H](CC(=O)O)NC(=O)[C@H](CC(C)C)NC(=O)[C@H]([C@@H](C)CC)NC(=O)C2(NC(=O)[C@H](C)NC(C)=O)CN(C2)C(=O)OCC=CCOC(=O)N2CC[C@](C(=O)N[C@@H](CCCNC(=N)N)C(=O)N[C@H](C(=O)N[C@@H](Cc3c[nH]c4ccccc34)C(N)=O)C(C)C)(C2)NC1=O [FP0616c, Ac-A-MA-I-L-D-A-H-I-MC-R-V-W-NH2] (Ac-A[3Aminoazetidine3carboxyl]ILDAHI[X3]RVW-NH2; linker 2-9 via X2)
2 | < 100 | 63 (≈ 99.8 µg/mL) | 63 (≈ 99.8 µg/mL) | – | CC[C@H](C)[C@@H]1NC(=O)[C@H](Cc2c[nH]cn2)NC(=O)[C@H](C)NC(=O)[C@H](CC(=O)O)NC(=O)[C@H](CC(C)C)NC(=O)[C@H]([C@@H](C)CC)NC(=O)C2(NC(=O)[C@H](C)NC(C)=O)CN(C2)C(=O)OCC=CCOC(=O)N2CC[C@@](C(=O)N[C@@H](CCCNC(=N)N)C(=O)N[C@H](C(=O)N[C@@H](Cc3c[nH]c4ccccc34)C(N)=O)C(C)C)(C2)NC1=O [FP0617c, Ac-A-MA-I-L-D-A-H-I-MB-R-V-W-NH2] (Ac-A[3Aminoazetidine3carboxyl]ILDAHI[X1]RVW-NH2; linker 2-9 via X2)
3 | < 100 | 40 (≈ 64.6 µg/mL) | 40 (≈ 64.6 µg/mL) | – | CC[C@H](C)[C@@H]1NC(=O)[C@H](Cc2c[nH]cn2)NC(=O)[C@H](C)NC(=O)[C@H](CC(=O)O)NC(=O)[C@H](CC(C)C)NC(=O)[C@H]([C@@H](C)CC)NC(=O)[C@@](C)(NC(=O)[C@H](C)NC(C)=O)CCN(C)C(=O)OCC=CCOC(=O)N2CC[C@@](C(=O)N[C@@H](CCCNC(=N)N)C(=O)N[C@H](C(=O)N[C@@H](Cc3c[nH]c4ccccc34)C(N)=O)C(C)C)(C2)NC1=O [FP0626c, Ac-A-MF-I-L-D-A-H-I-MB-R-V-W-NH2] (Ac-A[αMeDab(Me)]ILDAHI[X1]RVW-NH2; linker 2-9 via X2)
4 | 100 to 500 | 88 (≈ 124 µg/mL) | – | – | CC[C@H](C)[C@H](NC(=O)[C@H](Cc1c[nH]cn1)NC(=O)[C@H](C)NC(=O)[C@H](CC(=O)O)NC(=O)[C@H](CC(C)C)NC(=O)[C@@H](NC(=O)C(C)(C)NC(=O)[C@H](C)NC(C)=O)[C@@H](C)CC)C(=O)NC(C)(C)C(=O)N[C@@H](CCCNC(=N)N)C(=O)N[C@H](C(=O)N[C@@H](Cc1c[nH]c2ccccc12)C(N)=O)C(C)C [FP0628_aib, Ac-A-Aib-I-L-D-A-H-I-Aib-R-V-W-NH2] (Ac-A[Aib]ILDAHI[Aib]RVW-NH2)
5 | 100 to 500 | 13 (≈ 20.8 µg/mL) | – | – | CC[C@H](C)[C@@H]1NC(=O)[C@H](Cc2c[nH]cn2)NC(=O)[C@H](C)NC(=O)[C@H](CC(=O)O)NC(=O)[C@H](CC(C)C)NC(=O)[C@H]([C@@H](C)CC)NC(=O)[C@](C)(NC(=O)[C@H](C)NC(C)=O)CCCCCCC=CCOC(=O)N2CC[C@@](C(=O)N[C@@H](CCCNC(=N)N)C(=O)N[C@](C)(C(=O)N[C@@H](Cc3c[nH]c4ccccc34)C(N)=O)C(C)C)(C2)NC1=O [FP0632c, Ac-A-R8-I-L-D-A-H-I-MB-R-aMeV-W-NH2]
6 | – | – | – | ≤ 100 | Ac-PA[MC″]ILDAHV[S8]RVW-NH2 (staple 3-10; also: amino staple: carbamate CO2 extruded after metathesis, staple: amino staple (-N(R')-, CO2 extruded from carbamate staple)) [FP0006a]
7 | – | – | – | ≤ 100 | Ac-A[MI]ILDAHI[S6]RVW-NH2 (staple 2-9; also: amino staple MI/S6 (-N(R')-, after CO2 extrusion from carbamate staple), olefin E/Z not given here) [FP0507a]
8 | – | – | – | ≤ 100 | Ac-[R8]ILDAHI[MB(14)]RVW-NH2 (staple 1-8) [FP0220c]
9 | – | – | – | ≤ 100 | Ac-A[R8]ILDAHI[MB(14)]RVW-NH2 [FP0217u]
10 | – | – | – | ≤ 100 | AXILDAHIXRVW (not fully specified; Ac-A-R8-I-L-D-A-H-I-S5-R-V-W-NH2; hydrocarbon staple R8/S5) [FP0217s Isomer 1]
11 | – | – | – | ≤ 100 | Ac-PA[MC″]ILDAHV[S8]RVW-NH2 (staple 3-10) [FP0005c]
12 | – | – | – | ≤ 100 | Ac-A[MI]ILDAHI[S5]RVW-NH2 (staple 2-9; also: carbamate staple, olefin geometry not assigned) [FP0506c Isomer 2]
13 | – | – | – | ≤ 100 | AXILDAHIXRVW (not fully specified; Ac-A-R8-I-L-D-A-H-I-S5-R-V-W-NH2; hydrocarbon staple R8/S5) [FP0217s Isomer 2]
14 | – | – | – | ≤ 100 | Ac-A[R6]ILDAHI[MF]RVW-NH2 (staple 2-9; also: carbamate staple, isomer 1, olefin geometry not assigned, also called FP0502c (Peak 1)) [FP0502c Isomer 1]
15 | – | – | – | ≤ 100 | {Biotin-PEG3′}-A[R8]ILDAHI[MB]RVW-NH2 (staple 2-9) [FP0217c_btn]
16 | – | – | – | ≤ 100 | AXILDAHIXRVW (Ac-A-R8-I-L-D-A-H-I-MB-R-V-W-NH2; carbamate staple R8/MB with the olefin reduced to -CH2-CH2-, also called FPO217rc) [FP0217rc]
17 | – | – | – | ≤ 100 | AXILDAHIXRVW (not fully specified; Ac-A-R5-I-L-D-A-H-I-MH-R-V-W-NH2; carbamate staple R5/MH) [FP0510c Isomer 1]
18 | – | – | – | ≤ 100 | AXILDAHIXRVW (not fully specified; Ac-A-ME-I-L-D-A-H-I-S8-R-V-W-NH2; carbamate staple ME/S8) [FP0335c Isomer 2]
